Reference: US7214696B2, “Compositions and methods for stabilizing transthyretin and inhibiting transthyretin misfolding” (The Scripps Research Institute, priority 2002, dated 2007)
Read-outs that look alike come from different tables or passages of the source. Values belong to the compound of their own block, whether it stands above or below them.

Legend:
[1] = cited from earlier work
[2] = biological target: T1, serum TTR (Homo sapiens, UniProt P02766); experiment: Serum TTR tetramer stability against urea or acid denaturation (glutaraldehyde cross-linking, immunoblot), Example 3; assay type: in vivo; details: whole serum of dosed subjects, urea (0–9 M) or acid (pH 3.8–5.4)
T1 construct: from tissue; host or cells: serum of healthy human volunteers dosed orally with diflunisal
Experimental: Serum TTR tetramer stability towards urea denaturation was evaluated. Ten μL samples of serum were incubated (25° C.) in 90 μL of various concentrations of urea in 50 mM phosphate buffer (pH 7.0; 100 mM KCl, 1 mM EDTA, 1 mM DTT). Urea solutions were checked by refractive index to verify the concentrations prepared by weight. Glutaraldehyde cross-linking of the protein was performed by adding 10 μL of glutaraldehyde (25%). The cross-linking reaction was allowed to proceed for 4 min before it was quenched by the addition of 10 μL of NaBH4 (7% in 0.1 M NaOH). The samples were mixed with 120 μL of SDS reducing gel loading cocktail (final SDS concentration=2.5%) and boiled for 5 min.
Serum TTR tetramer stability against acid denaturation was evaluated. Ten μL samples of serum were incubated (37° C.) in 90 μL of 100 mM acidification buffer. Citrate buffer was used when a final pH of ≦3.8 was desired; acetate buffer was employed when the pH range under evaluation was 4.2–5.4. After cross-linking, samples were analyzed by SDS-PAGE and immunoblotting as described above.
Whole serum from the subjects was subjected to denaturation either by adding urea (0–9 M) or by adding acid (pH 3.8–5.4). […] Immunoblotting enables quantitative comparisons of the amount of folded TTR.

[3] = Serum diflunisal levels in healthy volunteers (HPLC), Example 3; assay type: in vivo; details: both sexes, human, oral
Experimental: (§1) Thirty healthy volunteers (25 male, 5 female) were enrolled after informed consent was given. The subjects ranged from 23 to 53 years of age (mean age, 37.6±8.8) with a mean body weight of 78.0±12.1 kg. […] This study design was approved by the Human Subjects Committee of Scripps Clinic, Scripps Green Hospital, The Scripps Research Institute, and The Scripps General Clinical Research Center.
Serum diflunisal levels were measured. One hundred μL of serum was added to 900 μL of acetonitrile to precipitate the proteins. Following centrifugation, 100 μL of supernatant was added to 900 μL of 100 mM aqueous triethylamine, pH 11.5. After filtration, 100 μL of each sample was injected on a Keystone 3-cm C18 reverse-phase column using a 40–100% gradient of solution B over 10 min (solution A: 94.8% water/5% acetonitrile/0.2% trifluoroacetic acid; solution B: 94.8% acetonitrile/5% water/0.2% trifluoroacetic acid), controlled by a Waters 600E multisolvent delivery system.

[4] = biological target: T2, TTR (Homo sapiens, UniProt P02766); experiment: Rate of acid-mediated (pH 4.4) amyloid fibril formation, Example 3; assay type: biochemical; set-up: made in house; host or cells: Escherichia coli BL21/DE3 Epicurian gold, pmmHα plasmid; details: diflunisal 5, 10, 20 and 60 μM
Experimental: (§2) Fibril formation assay was carried out as follows. A recombinant TTR stock solution (7.2 μM) was diluted 1:1 with 100 mM acidification buffer. Citrate buffer was used when a final pH of ≦3.8 was desired; acetate buffer was employed when the pH range under evaluation was 4.2–6.0, and phosphate buffer was utilized for evaluating amyloidogenesis at pH 6.5. Samples were incubated at 37° C. for 72 h without stirring after acidification. The extent of fibril formation was probed by turbidity measurements at […].

[5] = biological target: T3, V30M TTR (Homo sapiens, UniProt P02766, V50M); experiment: Acid-mediated amyloidogenesis of TTR variant V30M, Example 3; assay type: biochemical
T3 construct: made in house; host or cells: Escherichia coli BL21/DE3 Epicurian gold, pmmHα plasmid
Experimental: (§3) Recombinant WT TTR and variants were expressed in BL21/DE3 Epicurian gold Escherichia coli (Stratagene) transformed with the pmmHα plasmid containing the TTR and ampicillin-resistance genes. Expression and purification were performed as described previously (Lashuel et al., Biochemistry 1999; 38: 13560–73).
as §2
(§4) More than 80 TTR mutations predispose individuals to hereditary amyloidosis by sequence dependent alterations of the denaturation energy landscape.

[6] = Serum chemistry and side effects in healthy volunteers given diflunisal, Example 3; assay type: in vivo, human
Description: as §1

[7] = biological target: T4, WT TTR (Homo sapiens, UniProt P02766); experiment: Stagnant acid-mediated fibril formation assay (turbidity, pH 4.4, 72 h), Example 2; details: 3.6 TM TTR, 37° C.
Experimental: Each compound was subjected to a stagnant fibril formation assay. […] The mixture was vortexed and incubated for 30 min (25° C.), at which time the pH was lowered to 4.4 with 500 TL of 200 mM acetate, 100 mM KCl and 1 mM EDTA (pH 4.2). The final 1 mL solution was vortexed and incubated for 72 h at 37° C. without agitation. After 72 h, the cuvettes were vortexed to suspend any fibrils present, and the turbidity of the suspension was measured at 350 and 400 nm using a UV-vis spectrometer. […] All assays were performed in triplicate and all compounds were assayed using wild-type TTR.
After incubation of each mixture for 72 h (37° C.), the turbidity was measured at 350 and 400 nm using a UV-vis spectrometer. All amyloid fibril formation data was normalized to WT TTR amyloidogenesis in the absence of inhibitor, assigned to be 100% fibril formation.

[8] = biological target: TTR in human serum (Homo sapiens, UniProt P02766); details: diflunisal 100 μM in serum
Experimental: A 1:1 gel/10 mM Tris.HCl, pH 8.0/140 mM NaCl/0.025% NaN3(TSA) slurry (62.5 μL) of Sepharose was added to 500 μL of serum and incubated at 4° C. for 1 h. Following centrifugation, 400 μL of supernatant was added to 200 μL of a 1:1 gel/TSA slurry of the anti-TTR antibody-conjugated Sepharose and slowly rocked at 4° C. for 20 min. After centrifugation, the gel was washed with 1 mL of TSA/0.05% saponin (Fisher Scientific) (twice, 10 min each), and additionally with 1 mL of TSA (once, 10 min) at 4° C. […] After gentle rocking at 4° C. for 30 min, the sample was centrifuged and 145 μL of the supernatant was removed.

[9] = biological target: T2, TTR; experiment: Rate of urea-mediated (6.5 M) TTR tetramer dissociation by CD, Example 3; assay type: biochemical; set-up: made in house; host or cells: Escherichia coli BL21/DE3 Epicurian gold, pmmHα plasmid; details: 6.5 M urea; diflunisal 5, 10, 20 and 60 μM
Experimental: Rate of TTR tetramer dissociation was measured by circular dichroism spectroscopy. The evaluation of tetramer dissociation rates was carried out using recombinant TTR (3.6 μM) samples in 6.5 M urea, a concentration in the post-transition region for tertiary structural change (Hammarstrom et al., Proc Natl Acad Sci USA 2002; 99: 16427–32). The far-UV CD spectra of TTR (210–220 nm) as a function of time was measured to evaluate the slow tetramer dissociation rate by linking it to fast tertiary structural changes.

[10] = biological target: T5, V122I TTR (Homo sapiens, UniProt P02766, V142I); experiment: Acid-mediated amyloidogenesis of TTR variant V122I, Example 3; assay type: biochemical
T5 construct: made in house; host or cells: Escherichia coli BL21/DE3 Epicurian gold, pmmHα plasmid
Experimental: as §3, §2, §4

[11] = biological target: wt transthyretin tetramer (Homo sapiens, UniProt P02766); experiment: TTR tetramer dissociation in 6 M urea, Example 5; details: TTR 1.8 μM, inhibitor 3.6 μM
[12] = biological target: T6, TTR in human blood plasma (Homo sapiens, UniProt P02766); experiment: Immunoprecipitation/HPLC binding stoichiometry of PCBs and OH-PCBs in plasma, Example 4; set-up: from tissue; host or cells: human blood plasma from healthy volunteers; details: OH-PCB 10.8 μM in human blood plasma; post-wash lower limit
Experimental: After washing, the PCB or OH-PCB binding stoichiometry to TTR (≈5 μM) was evaluated by reverse phase HPLC.
A 2 mL eppendorf tube was filled with 1.5 mL of human blood plasma and 7.5 μL of a 2.16 mM DMSO solution of the PCB under evaluation. This solution was incubated at 37° C. for 24 h. A 1:1 resin/TSA slurry (187 μL) of quenched Sepharose was added to the solution and gently rocked at 4° C. for 1 h. The solution was centrifuged (16,000×g) and the supernatant divided into 3 aliquots of 400 μL each. These were each added to 200 μL of a 1:1 resin/TSA slurry of the anti-transthyretin antibody-conjugated Sepharose and slowly rocked at 4° C. for 20 min. The samples were centrifuged (16,000×g) and the supernatant removed. The resin was washed with 1 mL TSA/0.05% Saponin (Acros) (3×10 min) at 4° C., and additionally with 1 mL TSA (2×10 min) at 4° C. […]
The supernatant elution samples from the TTR antibody beads (145 μL) were loaded onto a Waters 71P autosampler. […] Detection was accomplished at 280 nm with a Waters 486 tunable absorbance detector, and the peaks were integrated to give the area of both TTR and the small molecule. In order to determine the quantity of each species, known amounts of tetrameric TTR or PCB were injected onto the HPLC. […] The ratio of small molecule to protein was calculated to yield the stoichiometry of small molecule bound to TTR in plasma.

[13] = biological target: T7, TTR in whole blood (Homo sapiens, UniProt P02766); experiment: Binding stoichiometry of OH-PCBs in whole blood, Example 4
T7 construct: Whole blood was drawn from healthy volunteers; from tissue; host or cells: human whole blood from healthy volunteers
Description: Up to two PCBs can bind to the two identical thyroid hormone binding sites in a TTR tetramer. […] Several of the hydroxylated PCBs (e.g., 16 and 22) approach a binding stoichiometry of 2.

[14] = biological target: T6, TTR in human blood plasma; assay type: binding; set-up: from tissue; host or cells: human blood plasma from healthy volunteers; details: test compound 10.8 μM, 24 h, 37° C.
Experimental: Human blood plasma (TTR conc. 3.6–5.4 μM) was incubated for 24 h with the test compound (10.8 μM) at 37° C. The TTR and any bound inhibitor were immunoprecipitated using a sepharose-bound polyclonal TTR antibody. The TTR with or without inhibitor bound was liberated from the resin at high pH, and the inhibitor:TTR stoichiometry was ascertained by HPLC analysis (FIG. 8).

[15] = biological target: T4, WT TTR; experiment: Transthyretin amyloid fibril formation assay (pH 4.4, 72 h, OD 400 nm), Example 4; assay type: biochemical; details: equimolar inhibitor and TTR concentration (3.6 μM)
Experimental: TTR secreted into blood from the liver appears to be the source of systemic TTR amyloid. While it is not yet clear where or how amyloid is formed in humans, the typical denaturant in cells is acid, which is effective in converting nearly all amyloidogenic peptides and proteins into amyloid and/or related aggregates. […] Hydroxylated PCBs and PCB 3 were highly efficacious as TTR fibril inhibitors. At an inhibitor concentration equal to the WT TTR concentration (3.6 μM), only 12–50% of the normal amount of fibril formation was observed after a 72 h incubation period.
The compounds were dissolved in DMSO at a concentration of 720 μM. Five μL of a solution of the compound being evaluated was added to 0.5 mL of a 7.2 μM TTR solution in 10 mM phosphate pH 7.6, 100 mM KCl, 1 mM EDTA buffer, allowing the compound to incubate with TTR for 30 min. 495 μL of […] acetate pH 4.2, 100 mM KCl, 1 mM EDTA was added, to yield final protein and inhibitor concentrations of 3.6 μM each and a pH of 4.4. The mixture was then incubated at 37° C. for 72 h, after which the tubes were vortexed for 3 sec and the optical density was measured at 400 nm. The extent of fibril formation was determined by normalizing each optical density by that of TTR without inhibitor, defined to be 100% fibril formation. Control solutions of each compound in the absence of TTR were also tested and none absorbed appreciably at 400 nm.

[16] = biological target: TTR tetramer (Homo sapiens, UniProt P02766); experiment: Tetramer dissociation in 6 M urea, Example 4; assay type: biochemical
Description: In addition to their high binding selectivity to plasma TTR, the OH-PCBs and PCB 3 also display excellent inhibition of TTR fibril formation in vitro. […] This is likely attributable to their high binding affinity (also consistent with their low off rate) and their non- or positively cooperative TTR binding properties which are unusual. […] Ground state stabilization raises the tetramer dissociation barrier (rate limiting step in TTR amyloidogenesis) substantially, such that the tetramer cannot dissociate on a biologically relevant timescale. […] OH-PCB 18 (3.6 μM) is believed to be an impressive amyloid inhibitor because it is an excellent kinetic stabilizer of tetrameric TTR, i.e. it prevents ⅔ of a 3.6 μM TTR sample from being amyloidogenic at pH 4.4 because TTR•18 and TTR•182 are incompetent to form amyloid, the remainder of TTR (1.18 μM) forms amyloid very inefficiently because of its low concentration. The dissociation rates of the best OH-PCB inhibitors may also be slower than expected because of TTR structural annealing around the OH-PCB, but this has not yet been evaluated as carefully as required.

concentration at 4 h after the 13th dose (day 8) ([3]; 125 mg twice a day, 125 mg bid): 20.1 ± 7.1 µM
concentration at 12 h after the 13th dose (day 8) ([3]; 125 mg twice a day, 125 mg bid): 6.9 ± 3 µM
concentration at 4 h after the 13th dose (day 8) ([3]; 250 mg twice a day, 250 mg bid): 234 ± 76 µM
concentration at 12 h after the 13th dose (day 8) ([3]; 250 mg twice a day, 250 mg bid): 146 ± 38.9 µM
concentration at 4 h after the 13th dose (day 8) ([3]; 500 mg twice a day, 500 mg bid): 517 ± 79.5 µM
concentration at 12 h after the 13th dose (day 8) ([3]; 500 mg twice a day, 500 mg bid): 422 ± 78.1 µM
rate of acid mediated amyloid fibril formation [4]: dose dependent slowing
reduction of TTR amyloidogenesis ([7]; 3.6 TM diflunisal): 63%
reduction of TTR amyloidogenesis ([7]; 7.2 TM diflunisal): 97%
binding stoichiometry in subjects [8]: 0.8–1
rate of urea-mediated dissociation [9]: dose dependent slowing
Compound: O=C(O)c1cc(-c2ccc(F)cc2F)ccc1O [diflunisal]
diflunisal concentration in blood ([1]; 4 h after a single 500 mg dose): > 300 µM
diflunisal concentration in blood ([1]; 20 h after a single 500 mg dose): exceed 30 μM
blood-brain barrier penetration ([1]; in vivo): cannot cross the blood-brain barrier
half-life ([1]; in vivo): 8 to 10 h
sustained plasma concentration ([1]; orally administered, 250 mg twice daily): exceeding 100 TM
protein bound ([1]; serum): Greater than 99%
stability of serum TTR against denaturation [2]: stabilizes serum TTR against denaturation stresses
inhibition of V30M amyloidogenesis [5]: inhibits both V122I and V30M amyloidogenesis in a dose dependent fashion
level of BUN ([6]; 250 mg bid group): increased slightly
serum level of albumin ([6]; 250 mg bid group): decreased moderately
level of BUN ([6]; 500 mg bid group): increased slightly
level of creatinine ([6]; 500 mg bid group): increased slightly
serum level of albumin ([6]; 500 mg bid group): decreased significantly
side effects ([6]; 125, 250 or 500 mg bid for 7 days, during or after the study): No obvious side effects were observed
inhibition of V122I amyloidogenesis [10]: inhibits both V122I and V30M amyloidogenesis in a dose dependent fashion

Compound: O=C(O)c1ccc2nc(-c3ccccc3)oc2c1 [Compound 21]
effect on dissociation of TTR [11]: did not hinder the dissociation of TTR at all
Equivalents Bound (Plasma) [12]: 1.40 ± 0.22
Equivalents Bound (Blood) [13]: 1.33

efficacy as fibril inhibitor [15]: among the highest observed to date
Equivalents Bound (Plasma) [12]: 1.36 ± 0.21
Compound: 3′,5′-Difluorobiphenyl-4-carboxylic acid [Compound 18]
inhibitor:TTR binding stoichiometry in human blood plasma [14]: displayed the highest binding stoichiometries
tetramer dissociation in 6 M urea [16]: dramatically slowed tetramer dissociation in 6 M urea
